What was measured:
[1] = target: genotype 2a 4BAH2 (Hepatitis C virus genotype 2a, UniProt Q99IB8); test: QCM-D of 4BAH2 membrane association with POPC bilayer, genotype 2a; assay type: binding; parameters: purchased Anaspec Corporation (San Jose, Calif., USA)
Experimental: (§1) Quartz Crystal Microbalance-Dissipation (QCM-D). Adsorption kinetics and the properties of the adsorbed layer were studied using a Q-Sense E4, multiple channel system (Q-Sense AB, Gothenburg, Sweden). The samples are introduced using a peristaltic pump with flow rate of 0.1 mL·min^−1. AT-cut quartz crystals (Q-Sense) of 14 mm in diameter coated with a SiOx layer were used for all vesicle interaction and adsorption experiments. Each QCM crystal was treated with oxygen plasma at ˜80 watts for 3 min prior to measurement (March Plasmod Plasma Etcher, March Instruments, California, USA). Each crystal was initially driven near its resonance frequency as indicated by a maximum in the current. To capture the characteristic dissipation, the drive circuit was short-circuited and the exponential decay of the crystal oscillation was recorded and analyzed, yielding the frequency and dissipation changes at 5, 15, 25, 35, 45, 55, and 65 MHz. The temperature of the Q-Sense cell was set at 25.0° C. and accurately controlled by a Peltier element in the cell with fluctuation smaller than ±0.05° C. All experiments were repeated at least three times, with a standard deviation of less than 2%.

[2] = target: genotype 1b 4BAH2 (Hepatitis C virus genotype 1b, UniProt Q9WMX2); test: QCM-D of 4BAH2 membrane association with POPC bilayer, genotype 1b; assay type: binding; parameters: purchased Anaspec Corporation (San Jose, Calif., USA)
Experimental: as §1

[3] = test system: genotype 2b luciferase reporter-linked HCV replicons; test: HCV replication assay in combination with NS3 protease inhibitor SCH503034; assay type: cell-based, Hepatitis C Virus; details: combination with various concentrations of SCH503034, FIG. 11
Experimental: FIG. 11. 4BAH2 inhibitors can increase the anti-HCV activity of agents targeting other elements of HCV. The compound of FIG. 10 was tested in standard HCV replication assays as in FIG. 10 but in the presence of various concentrations of an NS3 protease inhibitor (SCH503034, “SCH”). Note that in these assays a genotype 2b luciferase reporter-linked HCV replicons was used, indicating the broad spectrum potential of the C4 compound against multiple HCV genotypes.
To determine the optimum combination of an HCV AH function inhibiting agent, such as 5-(N-Methyl-N-isobutyl)amiloride, with other anti-HCV agents, HCV replication assays and/or animal studies can be performed in the presence of various combinations of the various anti-HCV agents. Increased inhibition of replication in the presence of an additional agent (above that observed with monotherapy) is evidence for the potential benefit of the combination therapy. For example, HCV replication assays employing a luciferase reporter-linked HCV genome in the presence of various combinations of 3-amino-N-carbamimidoyl-6-chloro-5-(isobutyl(methyl)amino)pyrazine-2-carboxamidepyrazine-2-carboxamide and an NS3 protease inhibitor (SCH503034) are described elsewhere in this application and some results are shown in FIG. 11.
Effect of hits on HCV replication. […]

[4] = test system: 2a HCV RNA replicon; test: 2a HCV RNA replicon assay (FL-J6/JFH-5'C19Rluc2AUbi, luciferase); assay type: cell-based, Hepatitis C Virus genotype 2a; details: full-length J6/JFH Luc, luciferase at 72 hr of treatment
How it was run: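 Huh7.5 cells electroporated with in vitro-transcribed FL-J6/JFH-5′C19Rluc2AUbi RNA (full-length genotype 2a, Renilla luciferase) and treated from 24 h, with compound refreshed daily for 72 h. Replication measured as Renilla luminescence, normalized to untreated or matched-DMSO samples. Alamar Blue fluorescence on the same wells assessed cytotoxicity.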

Chain of genotype 1b 4BAH2 (Q9WMX2 1754-1776): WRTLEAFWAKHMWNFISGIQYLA
Chain of genotype 2a 4BAH2 (Q99IB8 1758-1780): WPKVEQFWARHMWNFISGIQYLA

With `CC(C)CN(C)c1nc(N)c(C(=O)NC(=N)N)nc1Cl` [C4, 3-amino-N-carbamimidoyl-6-chloro-5-(isobutyl(methyl)amino)pyrazine-2-carboxamide] the “Effect on genotype 2a 4BAH2 membrane association (QCM-D)” value [1] was “no effect”, the “Effect on genotype 1b 4BAH2 membrane association (QCM-D)” value [2] was “no effect” and the “Effect on anti-HCV activity of NS3 protease inhibitor SCH503034” value [3] was “increases the anti-HCV activity”. The “Inhibition of HCV genotype 2a viral genome replication” value [4] was “exhibited inhibition”.

Source: US20110217265A1, “Screening for Inhibitors of HCV Amphipathic Helix (AH) Function” (priority 2008, published 2011)
